Measured values published in PubChem BioAssay AID449765 (Vanderbilt High Throughput Screening Facility, 2010).

What follows are molecules tested against Muscarinic acetylcholine receptor M4 (Homo sapiens) (UniProt P08173) (assay: human M4 positive allosteric modulators, dose response, cell-based, calcium flux, Millipore GPCR Profiler (AID 449765)). Conditions: M4-expressing cells, calcium flux fluorescence.
Sequence of Muscarinic acetylcholine receptor M4 (Homo sapiens) (P08173 whole entry, looked up): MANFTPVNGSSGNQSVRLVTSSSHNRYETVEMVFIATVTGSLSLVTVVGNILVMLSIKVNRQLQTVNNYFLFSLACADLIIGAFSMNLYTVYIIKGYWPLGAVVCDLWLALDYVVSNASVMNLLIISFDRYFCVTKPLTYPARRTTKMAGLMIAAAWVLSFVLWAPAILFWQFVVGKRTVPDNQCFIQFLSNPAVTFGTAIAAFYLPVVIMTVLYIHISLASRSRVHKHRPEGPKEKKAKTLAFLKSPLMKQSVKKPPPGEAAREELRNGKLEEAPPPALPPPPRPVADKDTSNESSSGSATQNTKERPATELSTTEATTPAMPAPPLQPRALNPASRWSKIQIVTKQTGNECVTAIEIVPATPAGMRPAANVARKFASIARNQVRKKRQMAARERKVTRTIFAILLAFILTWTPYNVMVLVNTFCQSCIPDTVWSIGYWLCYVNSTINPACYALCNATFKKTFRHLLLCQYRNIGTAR

Compound | EC50 [nM]
Cc1cc(OCc2ccncc2)nc2sc(C(=O)NCc3cc(F)ccc3F)c(N)c12 | 183
Cc1cc(OCCN2CCOCC2)nc2sc(C(=O)NC(C)(C)C)c(N)c12 | 192
Cc1cc(OCc2ccncc2)nc2sc(C(=O)NCc3cccc(F)c3F)c(N)c12 | 95.3
COc1ccc(CNC(=O)c2sc3nc(OCc4ccncc4)cc(C)c3c2N)cc1 | 100
